Tested on: Epidermophyton floccosum
Assay: Broth dilution anti-fungal susceptibility assay (NCCLS M38-A), MIC
Assay type: cell-based
Protocol: M. oleifera was grown and collected from Taichung, Taiwan. The seeds were de-hulled and the seed kernels dried at 100° C. for 24 h before extraction. The leaves were freshly harvested from M. oleifera trees of at least one-year-old and immediately air-dried. All materials were lyophilized and powdered before experiments. The dermatophytes used in this study were obtained from the Food Industry Research and Development Institute (FIRDI) in Taiwan. Trichophyton rubrum (BCRC 32805), Trichophyton mentagrophytes (BCRC 32066), Epidermophyton floccosum (BCRC 30531) and Microsporum canis (BCRC 30541) were maintained by monthly sub-culturing on Sabouraud dextrose agar (SDA) at 28° C.
The anti-fungal assays followed the protocol (document M38-A) of The National Committee for Clinical Laboratory Standards (NCCLS) in the USA. The protocol is a standard method for broth dilution anti-fungal susceptibility testing of filamentous fungi. 100× of the drug (such as ketoconozole; the MICs of this agent tested on the fungi described above were from 0.125 μg/ml to 12.5 μg/ml ) used for the control experiment. […] The minimal inhibitory concentration (MIC), which is defined as the lowest concentration of an anti-microbial agent preventing the visible growth of a microorganism in an agar or broth dilution susceptibility test (numerical score 0), was determined for each test sample.

CC(=O)N1CCN(c2ccc(OCC3COC(Cn4ccnc4)(c4ccc(Cl)cc4Cl)O3)cc2)CC1 (stereo not shown) [ketoconozole, ketoconazole]
MIC (text comparison ketoconozole vs EOF): 0.125 ˜ig/ml

— patent US7404975B2, “Moringa crude extracts and their derived fractions with antifungal activities” (Academia Sinica, priority 2006, dated 2008)
